Common to all, as to format: cell-based
One test relates to RS4;11 cells. The test is described as follows: Cell proliferation assay, RS4;11 cells (MTS, 72 h). The following applies: Homo sapiens, RS4;11 cell proliferation. How it is done: MTS testing kit was purchased from Promega. The RPMI-1640, Fetal bovine serum and Penicillin-Streptomycin were purchased from Gibco. Dimethyl sulfoxide (DMSO) was purchased from Sigma.
To investigate whether a compound is able to inhibit the activity of Bcl-2 in cells, a mechanism-based assay using RS4;11 (ATCC® CRL-1873™) cell was developed. In this assay, inhibition of Bcl-2 was detected by the inhibition of RS4;11 cells proliferation. RS4;11 cells were cultured in culture flasks to 40-80% confluence in RPMI-1640 plus 10% fetal bovine serum. Cells were collected and plated onto 96-well plates at desired cell density (30000 cells/well). Plates were incubated overnight at 37° C., with 5% CO2 to adhere. Compounds were added to the plates, and the final compound concentrations were 10000, 3333, 1111, […], 41, 14, 4.6 and 1.5 nM. Plates plated with RS4;11 cells were placed at 37° C., with 5% CO2 for 72 h. 20 μl MTS/100 μl medium mixture solution were added to each well and incubate the plates for exactly 2 hours. The reaction was stopped by adding 25 μl 10% SDS per well. Measure absorbance at 490 nm and 650 nm (reference wavelength). IC50 was calculated using GraphPad Prism 5.0.

In a further test the test system is Toledo cells. The test is described as follows: Cell proliferation assay, Toledo cells (MTS, 72 h). Particulars: Homo sapiens, Toledo cells, MTS, read-out: Toledo IC50. In short, it runs like this: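 Toledo cells (30000/well, RPMI-1640 with 10% FBS) were preincubated for 4 h. They were then exposed to nine compound concentrations from 10000 to 1.5 nM for 72 h at 37 °C, 5% CO2. MTS was added for 2 h and absorbance read at 490 nm to give IC50.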

The subject of the next test is RS4;11-BCL-2 F104L cells. The test is described as follows: Cell proliferation assay, engineered RS4;11 cells stably overexpressing BCL-2 F104L (MTS, 168 h). The following applies: Homo sapiens, read-out: RS4, 11 BCL2-F104L. Summed up: (§1)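 Proliferation read-out: MTS for exactly 2 h, then absorbance at 490 nm, with IC50 derived from the fit. Before this, engineered RS4;11 lines (BCL-2 G101V, F104L; 5000 cells/well) were exposed 168 h at 37 °C to serially diluted compound, final 1.4–10000 nM.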

A further test relates to RS4;11-BCL-2 G101V cells. Put plainly: Cell proliferation assay, engineered RS4;11 cells stably overexpressing BCL-2 G101V (MTS, 168 h). Particulars: Homo sapiens, RS4-11, 168 h, read-out: RS4, 11 BCL2- G101V. In short, it runs like this: as §1

With `CCc1ccccc1[C@@H]1CCCN1C1CC2(CCN(c3ccc(C(=O)NS(=O)(=O)c4cnc(NCC5CCC(C)(O)CC5)c([N+](=O)[O-])c4)c(Oc4cnc5[nH]ccc5c4)c3)CC2)C1` (stereo partly drawn) [Example A-8a, (S)-2-((1H-pyrrolo[2,3-b]pyridin-5-yl)oxy)-4-(2-(2-(2-ethylphenyl)pyrrolidin-1-yl)-7-azaspiro[3.5]nonan-7-yl)-N-((6-(((4-hydroxy-4-methylcyclohexyl)methyl)amino)-5-nitropyridin-3-yl)sulfonyl) benzamide], the IC50 in the test with RS4;11 cells was no more than 1 nM.

Turning to `CC1(O)CCC(CNc2ncc(S(=O)(=O)NC(=O)c3ccc(N4CCC5(CC4)CC(N4CCC[C@H]4c4ccccc4C4CC4)C5)cc3Oc3cnc4[nH]ccc4c3)cc2[N+](=O)[O-])CC1` (stereo partly drawn) [Example A-1a, (S)-2-((1H-pyrrolo[2,3-b]pyridin-5-yl)oxy)-4-(2-(2-(2-cyclopropylphenyl)pyrrolidin-1-yl)-7-azaspiro[3.5]nonan-7-yl)-N-((6-(((4-hydroxy-4-methylcyclohexyl)methyl)amino)-5-nitropyridin-3-yl)sulfonyl)benzamide], in the test on RS4;11 cells, the IC50 was no more than 1 nM.

Take `CCOc1nc2[nH]ccc2cc1Oc1cc(N2CCC3(CC2)CC(N2CCC[C@H]2c2ccccc2C(C)C)C3)ccc1C(=O)NS(=O)(=O)c1cc2c(c([N+](=O)[O-])c1)N[C@@H]([C@H]1CC[C@](C)(O)CC1)CO2` (single isomer, unassigned) [Example D-65, 2-((6-ethoxy-1H-pyrrolo[2,3-b]pyridin-5-yl)oxy)-N-(((5)-3-((1r,4S)-4-hydroxy-4-methylcyclohexyl)-5-nitro-3,4-dihydro-2H-benzo[b] [1,4]oxazin-7-yl)sulfonyl)-4-(2-((R or S)-2-(2-isopropylphenyl)pyrrolidin-1-yl)-7-azaspiro[3.5]nonan-7-yl)benzamide]: the IC50 in the test on Toledo cells turned out to be 1 nM; with RS4;11-BCL-2 F104L cells, 20 nM; in the test on RS4;11-BCL-2 G101V cells it was 1 nM.

Turning to `CC(C)c1ccccc1[C@@H]1CCCN1C1CC2(CCN(c3ccc(C(=O)NS(=O)(=O)c4cc5c(c([N+](=O)[O-])c4)N[C@@H]([C@H]4CC[C@](C)(O)CC4)CO5)c(Oc4cc5cc[nH]c5nc4OC[C@H]4CCCN4C)c3)CC2)C1` (single isomer, unassigned) [Example D-130, N-(((S)-3-((1r,4S)-4-hydroxy-4-methylcyclohexyl)-5-nitro-3,4-dihydro-2H-benzo[b][1,4]oxazin-7-yl)sulfonyl)-4-(2-((R or S)-2-(2-isopropylphenyl)pyrrolidin-1-yl)-7-azaspiro[3.5]nonan-7-yl)-2-((6-(((R)-1-methylpyrrolidin-2-yl)methoxy)-1H-pyrrolo[2,3-b]pyridin-5-yl)oxy)benzamide], the IC50 in the test with Toledo cells, in the test on RS4;11-BCL-2 F104L cells and in the test with RS4;11-BCL-2 G101V cells was 1 nM in each case.

Turning to `CC(C)c1ccccc1[C@@H]1CCC[C@@H]1N1CC2(CCN(c3ccc(C(=O)NS(=O)(=O)c4cc5c(c([N+](=O)[O-])c4)N[C@@H]([C@H]4CC[C@](C)(O)CC4)CO5)c(Oc4cc5c(F)c[nH]c5nc4F)c3)CC2)C1` (single isomer, unassigned) [Example D-96, 2-((3,6-difluoro-1H-pyrrolo[2,3-b]pyridin-5-yl)oxy)-N-(((S)-3-((1r,4S)-4-hydroxy-4-methylcyclohexyl)-5-nitro-3,4-dihydro-2H-benzo[b][1,4]oxazin-7-yl)sulfonyl)-4-(2-((1S,2S or 1R,2R)-2-(2-isopropylphenyl)cyclopentyl)-2,7-diazaspiro[3.5]nonan-7-yl)benzamide], the IC50 in the test with Toledo cells was determined as 1 nM; with RS4;11-BCL-2 F104L cells, 1 nM; in the test on RS4;11-BCL-2 G101V cells it was 4 nM.

Turning to `CC(C)c1ccccc1[C@@H]1CCCN1C1CC2(CCN(c3ccc(C(=O)NS(=O)(=O)c4cc5c(c([N+](=O)[O-])c4)N[C@@H]([C@H]4CC[C@](C)(O)CC4)CO5)c(Oc4cc5cc[nH]c5nc4OC4CCN(C)CC4)c3)CC2)C1` (single isomer, unassigned) [Example D-229, N-(((S)-3-((1r,4S)-4-hydroxy-4-methylcyclohexyl)-5-nitro-3,4-dihydro-2H-benzo[b][1,4]oxazin-7-yl)sulfonyl)-4-(2-((R or S)-2-(2-isopropylphenyl)pyrrolidin-1-yl)-7-azaspiro[3.5]nonan-7-yl)-2-((6-((1-methylpiperidin-4-yl)oxy)-1H-pyrrolo[2,3-b]pyridin-5-yl)oxy)benzamide], the IC50 with Toledo cells, in the test with RS4;11-BCL-2 F104L cells and in the test on RS4;11-BCL-2 G101V cells was 1 nM throughout.

As to `CC(C)c1ccccc1[C@@H]1CCCN1C1CC2(CCN(c3ccc(C(=O)NS(=O)(=O)c4cc5c(c([N+](=O)[O-])c4)N[C@@H]([C@H]4CC[C@](C)(O)CC4)CO5)c(Oc4cc5cc[nH]c5nc4OC[C@@H]4CCCN4C)c3)CC2)C1` (single isomer, unassigned) [Example D-131, N-(((S)-3-((1r,4S)-4-hydroxy-4-methylcyclohexyl)-5-nitro-3,4-dihydro-2H-benzo[b][1,4]oxazin-7-yl)sulfonyl)-4-(2-((R or S)-2-(2-isopropylphenyl)pyrrolidin-1-yl)-7-azaspiro[3.5]nonan-7-yl)-2-((6-(((S)-1-methylpyrrolidin-2-yl)methoxy)-1H-pyrrolo[2,3-b]pyridin-5-yl)oxy)benzamide], the IC50 in the test with Toledo cells, in the test with RS4;11-BCL-2 F104L cells and with RS4;11-BCL-2 G101V cells was 1 nM each time.

Turning to `CC(C)c1ccccc1[C@@H]1CCCN1C1CC2(CCN(c3ccc(C(=O)NS(=O)(=O)c4cc5c(c([N+](=O)[O-])c4)N[C@@H]([C@H]4CC[C@](C)(O)CC4)CO5)c(Oc4cc5cc[nH]c5nc4F)c3)CC2)C1` (single isomer, unassigned) [Example D-64, 2-((6-fluoro-1H-pyrrolo[2,3-b]pyridin-5-yl)oxy)-N-(((S)-3-((1r,4S)-4-hydroxy-4-methylcyclohexyl)-5-nitro-3,4-dihydro-2H-benzo[b] [1,4]oxazin-7-yl)sulfonyl)-4-(2-((R or S)-2-(2-isopropylphenyl)pyrrolidin-1-yl)-7-azaspiro[3.5]nonan-7-yl)benzamide], the IC50 in the test on Toledo cells came to 1 nM; in the test on RS4;11-BCL-2 F104L cells, 25 nM; in the test on RS4;11-BCL-2 G101V cells, 1 nM.

Consider `CC(C)c1ccccc1[C@@H]1CCCN1C1CC2(CCN(c3ccc(C(=O)NS(=O)(=O)c4cc5c(c([N+](=O)[O-])c4)N[C@@H]([C@H]4CC[C@](C)(O)CC4)CO5)c(Oc4cc5c(F)c[nH]c5nc4F)c3)CC2)C1` (single isomer, unassigned) [Example D-55, 2-((3,6-difluoro-1H-pyrrolo[2,3-b]pyridin-5-yl)oxy)-N-(((S)-3-((1r,4S)-4-hydroxy-4-methylcyclohexyl)-5-nitro-3,4-dihydro-2H-benzo [b][1,4]oxazin-7-yl)sulfonyl)-4-(2-((R or S)-2-(2-isopropylphenyl)pyrrolidin-1-yl)-7-azaspiro[3.5]nonan-7-yl)benzamide], for which the figures for the IC50 in the test on Toledo cells, with RS4;11-BCL-2 F104L cells and in the test on RS4;11-BCL-2 G101V cells were 1 nM, 19 nM and 14 nM, respectively.

With `CC(C)c1ccccc1[C@@H]1CCC[C@@H]1N1CC2(CCN(c3ccc(C(=O)NS(=O)(=O)c4cnc(NC[C@H]5CC[C@](C)(O)CC5)c([N+](=O)[O-])c4)c(Oc4cc5c(F)c[nH]c5nc4F)c3)CC2)C1` (single isomer, unassigned) [Example A-150, 2-((3,6-difluoro-1H-pyrrolo[2,3-b]pyridin-5-yl)oxy)-N-((6-((((1r,4r)-4-hydroxy-4-methylcyclohexyl)methyl)amino)-5-nitropyridin-3-yl)sulfonyl)-4-(2-((1S,2S or 1R,2R)-2-(2-isopropylphenyl)cyclo-petyl)-2,7-diazaspiro[3.5]nonan-7-yl) benzamide], the IC50 in the test with Toledo cells turned out to be 1 nM; in the test on RS4;11-BCL-2 F104L cells it was 1 nM; in the test on RS4;11-BCL-2 G101V cells, 6 nM.

With `COCCOc1nc2[nH]cc(F)c2cc1Oc1cc(N2CCC3(CC2)CN([C@H]2CCC[C@H]2c2ccccc2C(C)C)C3)ccc1C(=O)NS(=O)(=O)c1cc2c(c([N+](=O)[O-])c1)N[C@@H]([C@H]1CC[C@](C)(O)CC1)CO2` (single isomer, unassigned) [Example D-95, 2-((3-fluoro-6-(2-methoxyethoxy)-1H-pyrrolo[2,3-b]pyridin-5-yl)oxy)-N-(((S)-3-((1r,4S)-4-hydroxy-4-methylcyclohexyl)-5-nitro-3,4-dihydro-2H-benzo[b][1,4]oxazin-7-yl)sulfonyl)-4-(2-((1S,2S or 1R,2R)-2-(2-isopropylphenyl)cyclopentyl)-2,7-diazaspiro[3.5]nonan-7-yl)benzamide], the IC50 in the test with Toledo cells came out at 1 nM; with RS4;11-BCL-2 F104L cells it was 8 nM; in the test with RS4;11-BCL-2 G101V cells, 3 nM.

Source of the values: US20230159527A1, “COMPOUNDS AS BCL-2 INHIBITORS” (Fochon Pharmaceuticals, Ltd., priority 2020, published 2023).
